Experimental data: the supplement of paper PMC5579334

Legend:
[1] = system: HSC2; experiment: relative IC50 (inflection point of fitted dose-response curve, CellTiter-Glo viability, 72 h; top asymptote may be below 50% inhibition); higher = less potent
Method in brief: (§1)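 MPNST cell lines and primary human Schwann cells were seeded at 750–1000 cells per well into 384-well plates preprinted with each compound at five concentrations in 10-fold steps, then incubated 72 h at 37 °C, 5% CO2. CellTiter-Glo ATP luminescence gave viability, scaled between vehicle and positive-control wells, with duplicates averaged where present. Curves were fitted with a four-parameter logistic model. Percent inhibition refers to the top concentration, while drug sensitivity score and relative IC50, censored at the top concentration, come from these fits.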

[2] = system: HS-PSS; experiment: as above
Method in brief: as §1

[3] = system: S462; experiment: as above
Method in brief: as §1

[4] = system: HSC1; experiment: as above
Method in brief: as §1

[5] = system: YST-1; experiment: as above
Method in brief: as §1

[6] = system: ST8814; experiment: relative IC50 (inflection point of fitted dose-response curve, CellTox-Green cytotoxicity, 72 h; top asymptote may be below 50%); higher = less potent
Method in brief: (§2)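 For 72 h at 37 °C, MPNST cell lines and primary human Schwann cells were exposed in 384-well plates to five 10-fold compound dilutions. CellTox-Green, added before seeding at a final 1:1000 dilution, gave fluorescence from DNA released by disrupted cells. Signals were scaled to vehicle and positive-control wells, cultures failing plate quality control were left out, and four-parameter logistic fits were applied. Relative IC50 and drug sensitivity score were derived from the fits, with IC50 censored at the top concentration.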

[7] = system: HSC2; experiment: as above
Method in brief: as §2

[8] = system: S1507-2; experiment: as above
Method in brief: as §2

[9] = system: HS-PSS; experiment: as above
Method in brief: as §2

[10] = system: STS26T; experiment: as above
Method in brief: as §2

[11] = system: HSC1; experiment: as above
Method in brief: as §2

[12] = system: STS26T; experiment: relative IC50 (inflection point of fitted dose-response curve, CellTiter-Glo viability, 72 h; top asymptote may be below 50% inhibition); higher = less potent
Method in brief: as §1

[13] = system: ST8814; experiment: as above
Method in brief: as §1

[14] = system: HS-Sch-2; experiment: as above
Method in brief: as §1

SMILES | relative IC50 [1] [µM] | relative IC50 [2] [µM] | relative IC50 [3] [µM] | relative IC50 [4] [µM] | relative IC50 [5] [µM] | relative IC50 [6] [µM] | relative IC50 [7] [µM] | relative IC50 [8] [µM] | relative IC50 [9] [µM] | relative IC50 [10] [µM] | relative IC50 [11] [µM] | relative IC50 [12] [µM] | relative IC50 [13] [µM] | relative IC50 [14] [µM]
CC(C)(C)c1cc(NC(=O)Nc2ccc(-c3cn4c(n3)sc3cc(OCCN5CCOCC5)ccc34)cc2)no1 [Quizartinib] | 0.402 | > 1 | 0.179 | 0.197 | 0.153 | > 1 | > 1 | > 1 | > 1 | > 1 | > 1 | – | – | –
Cn1nnc2c(C(N)=O)ncn2c1=O [Temozolomide] | > 10 | – | > 10 | > 10 | – | > 10 | > 10 | > 10 | > 100 | > 10 | > 10 | > 10 | – | –
O=C1CCC(N2C(=O)c3ccccc3C2=O)C(=O)N1 (stereo unspecified) [Thalidomide] | > 10 | > 10 | > 10 | > 10 | > 10 | > 10 | > 10 | > 10 | > 10 | – | > 10 | > 10 | – | –
Nc1cccc2c1CN(C1CCC(=O)NC1=O)C2=O (stereo unspecified) [Lenalidomide] | – | > 100 | > 10 | – | – | > 10 | 1.87 | > 10 | > 100 | > 10 | > 10 | > 10 | > 10 | –
O=C(c1ccc(C(=O)N2CCC(N3CCCC3)CC2)c(Nc2ccccc2)c1)N1CCC(N2CCCC2)CC1 [UNC1215] | > 30 | – | > 30 | > 30 | > 30 | > 30 | > 30 | > 30 | > 30 | – | > 30 | > 30 | – | –
CC[C@H](Nc1ncnc2[nH]cnc12)c1nc2cccc(F)c2c(=O)n1-c1ccccc1 [Idelalisib] | > 10 | > 10 | > 10 | > 10 | 1.04 | > 10 | 0.511 | > 10 | > 10 | – | > 10 | 1.54 | – | > 10
Cn1cnc2c(F)c(Nc3ccc(Br)cc3F)c(C(=O)NOCCO)cc21 [MEK-162] | > 1 | – | 0.124 | – | – | > 1 | > 1 | > 1 | – | > 1 | > 1 | – | – | –
N[C@@H](Cc1ccc(N(CCCl)CCCl)cc1)C(=O)O [Melphalan aq] | > 12.5 | – | > 12.5 | – | – | > 12.5 | > 12.5 | > 12.5 | – | > 12.5 | > 12.5 | > 12.5 | > 12.5 | –
CCCS(=O)(=O)Nc1ccc(F)c(C(=O)c2c[nH]c3ncc(-c4ccc(Cl)cc4)cc23)c1F [Vemurafenib] | 1.46 | 3.73 | > 10 | 1.74 | > 10 | – | > 10 | > 10 | > 10 | 1.17 | > 10 | 1.84 | > 10 | 3.92
CN(Cc1cnc2nc(N)nc(N)c2n1)c1ccc(C(=O)N[C@@H](CCC(=O)O)C(=O)O)cc1 [Methotrexate] | – | > 5 | 0.0276 | > 5 | 0.0609 | – | > 5 | > 5 | > 5 | 0.314 | > 5 | 0.0149 | 0.195 | 0.0892
CC(=O)OC[C@H]1O[C@@H]([S-])[C@H](OC(C)=O)[C@@H](OC(C)=O)[C@@H]1OC(C)=O.CCP(CC)CC.[Au+] [Auranofin] | 0.462 | 0.668 | 0.449 | 0.387 | 0.805 | – | 0.575 | > 2.5 | 0.754 | 0.697 | 0.516 | 0.61 | 0.779 | 0.362
NC(=O)NO [Hydroxyurea] | – | > 100 | > 100 | – | – | > 100 | > 100 | > 100 | > 100 | > 100 | > 100 | > 100 | > 100 | –
Sc1ncnc2nc[nH]c12 [Mercaptopurine] | > 10 | – | 1.46 | > 10 | – | > 10 | > 10 | > 10 | > 10 | – | > 10 | 1.27 | 0.193 | 0.64
CNC(=O)c1cc(Oc2ccc(NC(=O)Nc3ccc(Cl)c(C(F)(F)F)c3)c(F)c2)ccn1 [Regorafenib] | 2.05 | 3.58 | 1.7 | 2.77 | 1.7 | 3.16 | > 10 | > 10 | > 10 | – | > 10 | 1.69 | 1.34 | 3.57
C=CC[C@@H]1/C=C(\C)C[C@H](C)C[C@H](OC)[C@H]2O[C@@](O)(C(=O)C(=O)N3CCCC[C@H]3C(=O)O[C@H](/C(C)=C/[C@@H]3CC[C@@H](O)[C@H](OC)C3)[C@H](C)[C@@H](O)CC1=O)[C@H](C)C[C@@H]2OC [Tacrolimus] | > 10 | > 10 | > 10 | – | > 10 | > 10 | > 10 | > 10 | > 10 | > 10 | > 10 | > 10 | – | > 10
C[C@]12C=CC(=O)C=C1CC[C@@H]1[C@@H]2[C@@H](O)C[C@@]2(C)[C@H]1CC[C@]2(O)C(=O)CO [Prednisolone] | > 10 | > 10 | > 10 | > 10 | – | > 10 | > 10 | > 10 | > 10 | > 10 | > 10 | > 10 | – | > 10
